Results from PMC12833874 (Journal of Medicinal Chemistry, 2025).
Where two headings read alike, the source gives them in different places.

How the values were obtained:
KOPr = conditions: literature value, reference number not given; read-out: KOPr K i; cited from earlier work
NOPr [1] = target: T1, NOPr (Homo sapiens, UniProt P41146); assay: TR-FRET competition binding with tracers 13g and 13h, Lumi4-Tb SNAP-NOPr membranes; conditions: 140 mM Na+, 100 μM Gpp(NH)p, 2 h 37 °C
DOPr = conditions: literature value, reference number not given; read-out: DOPr K i; cited from earlier work
NOPr [2] = target: T1, NOPr; assay: BRET G-protein activation (GPA) assay, Gαi2, agonist and antagonist mode, Flp-In-NOPr-CHO cells; assay type: cell-based
NOPr [3] = conditions: Table 4; literature values, reference number not given; read-out: literature K i; cited from earlier work
MOPr = conditions: literature value, reference number not given; read-out: MOPr K i; cited from earlier work
NOPr [4] = target: T1, NOPr; assay: TR-FRET kinetic binding, Lumi4-Tb-SNAP-NOPr-CHO membranes; conditions: for Kd: kinetically derived, 15 min, n = 3
SNAP-NOPr = target: T2, SNAP-NOPr (Homo sapiens, UniProt P41146); assay: Confocal imaging of fluorescent ligand binding, live FlpIn CHO cells stably expressing SNAP-NOPr; assay type: cell-based; conditions: 1 μM, 30 min at 37 °C, live cells
T2 construct: expressed in transfected cells
T2 sequence (P41146 whole entry): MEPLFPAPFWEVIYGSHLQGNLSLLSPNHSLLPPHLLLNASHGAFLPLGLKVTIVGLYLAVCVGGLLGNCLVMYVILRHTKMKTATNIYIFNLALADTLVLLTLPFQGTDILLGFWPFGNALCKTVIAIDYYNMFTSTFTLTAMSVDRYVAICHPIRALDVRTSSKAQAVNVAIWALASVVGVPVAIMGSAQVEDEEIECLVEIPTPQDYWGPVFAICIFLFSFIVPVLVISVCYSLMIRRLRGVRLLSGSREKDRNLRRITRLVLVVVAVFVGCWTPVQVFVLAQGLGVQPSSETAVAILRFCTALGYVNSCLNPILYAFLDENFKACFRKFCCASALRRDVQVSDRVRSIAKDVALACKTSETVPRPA
Procedure: To first assess whether the library of fluorescent ligands (13a-h and 14h) can specifically label the NOPr, single time point confocal images of live FlpIn CHO cells stably expressing SNAP-NOPr were captured. Cells were incubated with fluorescent ligands 13a-h and 14h (1 μM) to assess the fluorescent ligand binding.
3 Single time point confocal images of live FlpIn CHO cells stably expressing SNAP-NOPr. Cells were labeled with SNAP-AF488 (cyan) to visualize SNAP-NOPr expression (a–d) and incubated for 30 min at 37 °C with fluorescent ligands 13e–h (1 μM) (magenta) to visualize fluorescent ligand binding (e-h).
For all experiments, live cell single time point confocal images were captured using a Zeiss Cell Discoverer 7 LSM 900 high-content automated confocal microscope. Two images per well were captured using a 10× objective and the Cy5 channel (650 λex, 673 λem), the AF488 (495λex, 520 λem) channel, and the CFP (433λex, 475 λem) channel. All cells were imaged in an imaging buffer containing (2 mM sodium pyruvate, 145 mM NaCl, 10 mM D-glucose, 5 mM KCl, 1 mM MgSO4·7H2O, 10 mM HEPES, 1.3 mM CaCl2 dihydrate, and 1.5 mM NaHCO3).
Stably expressing SNAP-NOPr FlpIn-CHO cells suspended in DMEM (D6421) (100 μL) were seeded (10,000 cells/well) into 96-well poly-D-lysine (PDL)-coated Greiner black polyester plates. Cells were incubated for 48 h at 37 °C and 5% CO2 prior to imaging.
Before measurement, the media were removed, and cells were washed with 90 μL of imaging buffer. Cells were then incubated with SNAP-AF488 (New England Biolabs) (0.5 μg·mL^–1) in imaging buffer for 30 min at 37 °C. After incubation, the SNAP-AF488 solution was aspirated and cells were rinsed twice with imaging buffer (90 μL). […] Cells were incubated for 30 min at 37 °C and 5% CO2 before the images were captured.

NOPr [5] = target: T1, NOPr; assay: TR-FRET equilibrium saturation binding, Lumi4Tb-SNAP-NOPr CHO membranes
NOPr [6] = target: T1, NOPr; assay: TR-FRET competition binding with tracer 13h in presence and absence of Na+ and Gpp(NH)p
CHOhDOPr = target: CHOhDOPr; parameters: method as in Spagnolo et al.,1; conditions: ref Spagnolo et al.,1; cited from earlier work
CHOhMOPr = target: CHOhMOPr; parameters: method as in Spagnolo et al.,1; conditions: ref Spagnolo et al.,1; cited from earlier work
CHOhKOPr = target: CHOhKOPr; parameters: method as in Spagnolo et al.,1; conditions: ref Spagnolo et al.,1; cited from earlier work
CHOhNOPr = conditions: ref Spagnolo et al.,1; cited from earlier work
NOPr [7] = system: NOPr; parameters: method as in Spagnolo et al.,1; conditions: ref Spagnolo et al.,1, cited from earlier work
[8] = IC50, antagonist mode, inhibition of EC80 concentration of N/OFQ, n = 4 in duplicate
[9] = pIC50 ± SEM, antagonist mode, inhibition of EC80 concentration of N/OFQ, n = 4 in duplicate

T1 sequence (P41146 whole entry): as above

In the case of `O=C(NCCCN1CCC2(CC1)OCc1ccccc12)[C@H]1CCCN1Cc1ccccc1` [C24, (2R)-1-(phenylmethyl)-N-(3-spiro[1H-2-benzofuran-3,4′-piperidine]-1′-ylpropyl)pyrrolidine-2-carboxamide], the Ki (KOPr) is given as > 2500 nM, the Ki (NOPr [1]; 13g K i ± SEM (nM), tracer 13g (20 nM; 5 nM elsewhere in the source)) is given as 0.06 ± 0.02 nM and the Ki (NOPr [1]; 13h K i ± SEM (nM), tracer 13h (5 nM; 25 nM elsewhere in the source)) is given as 0.09 ± 0.0008 nM. The Ki (DOPr) was > 2500 nM, the IC50 (NOPr [2]; [8]) was 2.7 nM and the IC50 (NOPr [2]; [9]) was 2.51 nM. The Ki (NOPr [3]) was 0.24 nM and the Ki (MOPr) was > 2500 nM.
In the case of `CN1/C(=C/C=C/C=C/C2=[N+](CCCCCC(=O)NCCOc3cccc(CN4CCC[C@@H]4C(=O)NCCCN4CCC5(CC4)OCc4ccccc45)c3)c3ccc(S(=O)(=O)[O-])cc3C2(C)C)C(C)(C)c2cc(S(=O)(=O)[O-])ccc21.[K+]` [13g, Potassium 1-(6-((2-(3-(((R)-2-((3-(3H-Spiro[isobenzofuran-1,4′-piperidin]-1′-yl)propyl)carbamoyl)pyrrolidin-1-yl)methyl)phenoxy)ethyl)amino)-6-oxohexyl)-3,3-dimethyl-2-((1E,3E)-5-((E)-1,3,3-trimethyl-5-sulfonatoindolin-2-ylidene)penta-1,3-dien-1-yl)-3H-indol-1-ium-5-sulfonate], the koff (NOPr [4]; 0–50 nM, over 15 min) is reported as 0.00167 s⁻¹, the kon (NOPr [4]; 0–50 nM, over 15 min) is reported as 51700 M⁻¹ s⁻¹ and the Kd (NOPr [4]; read-out: kinetic KD (converted)) is reported as 35.7 nM. For the same molecule, the Kd (NOPr [4]; read-out: kinetic pKD (converted)) was 35.5 nM, the “reduction in inhibitory potency from N-Boc congener to fluorescent ligand” value (NOPr [2]; 11g to 13g, 11h to 13h and 14h) was ≥ 5 fold and the IC50 (NOPr [2]; [8]) was 110 nM. It also gave an IC50 (NOPr [2]; NOP IC50 (nM), supplementary csv, GPA assay antagonist mode) of 109 nM, an IC50 (NOPr [2]; NOP pIC50 ± SEM, supplementary csv, GPA assay antagonist mode) of 110 nM and an IC50 (NOPr [2]; [9]) of 100 nM. The “fluorescent ligand binding (confocal images)” value (SNAP-NOPr) was “more pronounced binding”, the “binding behaviour at the highest concentration tested” value (NOPr [5]; 400 nM) was “saturable binding with minimal nonspecific binding” and the Kd (NOPr [5]; 2 h, 37 °C, n = 3, read-out: saturation KD (converted)) was 19.1 nM. For the same molecule, the Kd (NOPr [5]; 2 h, 37 °C, n = 3, read-out: saturation pKD (converted)) was 19.1 nM, the “selectivity over the other opioid receptors” value (NOPr [5]; NOPr vs MOPr, DOPr, KOPr) was > 100 fold and the Kd (NOPr [5]; Table 3, equilibrium saturation binding, read-out: KD NOPr (converted)) was 19.1 nM. For the same molecule, the Kd (NOPr [5]; Table 3, equilibrium saturation binding, read-out: pKD ± SEM NOPr (converted)) was 19.1 nM.
For `Cc1cccc2c1CC[C@H](CN1CCC(c3c(Cl)cccc3Cl)CC1)C[C@@H]2O` [SB-612111, (−)-cis-1-Methyl-7-[[4-(2,6-dichlorophenyl)piperidin-1-yl]methyl]-6,7,8,9-tetrahydro-5 H-benzocyclohepten-5-ol], the “change in apparent affinity (K i), Na+ and Gpp(NH)p vs NMDG condition” value (NOPr [6]) is listed as ~1.3 fold, the Ki (CHOhDOPr) is listed as < 5000 nM and the “pKi CHOhDOPr” value (CHOhDOPr) is listed as < 5.3. The Ki (CHOhMOPr) was < 1000 nM, the “pKi CHOhMOPr” value (CHOhMOPr) was < 6.0 and the Ki (CHOhKOPr) was < 1000 nM. For the same molecule, the “pKi CHOhKOPr” value (CHOhKOPr) was < 6.0, the Ki (CHOhNOPr) was 0.16 nM and the “pKi ± SEM CHOhNOPr” value (CHOhNOPr) was 9.80 ± 0.08. For the same molecule, the “pKB GTPγ[35S]” value (NOPr [7]) was […] and the Kb (NOPr [7]; read-out: KB GTPγ[35S]) was […].
In the case of “N/OFQ: endogenous 17-amino acid neuropeptide agonist nociceptin/orphanin FQ, full NOPr agonist”, the Ki (NOPr [3]) is listed as 0.08 ± 0.03 nM.
Work on `CC(C)C1CCC(N2CCC3(CC2)C(=O)N(CCNS(N)(=O)=O)Cc2ccccc23)CC1` (centres unmarked) [AT-121] yielded a Ki (NOPr [1]; read-out: 13h K i ± SEM, tracer 13h (5 nM; 25 nM elsewhere in the source)) of 11 ± 10 nM and a Ki (NOPr [1]; tracer 13g (20 nM; 5 nM elsewhere in the source), read-out: 13g K i ± SEM) of 17 ± 3 nM.
